Assay results as given in BindingDB's records for doi:10.1021/jm401195n (Fudan University, 2013).

Target: Indoleamine 2,3-dioxygenase 1 (Homo sapiens, UniProt P14902)
Assay: Inhibition of human IDO1 expressed in HEK293 cells assessed as kynurenine release after 5 hrs by spectrophotometry

Chain of Indoleamine 2,3-dioxygenase 1 (P14902 whole entry): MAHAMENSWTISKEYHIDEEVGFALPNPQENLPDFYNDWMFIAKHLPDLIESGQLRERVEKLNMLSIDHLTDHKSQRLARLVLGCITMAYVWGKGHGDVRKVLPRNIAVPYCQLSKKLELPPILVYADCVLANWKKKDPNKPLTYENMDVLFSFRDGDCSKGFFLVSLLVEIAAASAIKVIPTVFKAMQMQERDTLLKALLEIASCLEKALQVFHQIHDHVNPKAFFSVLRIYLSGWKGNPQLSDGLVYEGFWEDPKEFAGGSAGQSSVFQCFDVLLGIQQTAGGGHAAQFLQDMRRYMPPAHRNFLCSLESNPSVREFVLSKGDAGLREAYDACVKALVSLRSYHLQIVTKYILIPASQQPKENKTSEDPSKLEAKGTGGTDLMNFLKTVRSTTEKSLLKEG

IC50: 0.018 nM
Compound: O=C1c2cc([N+](=O)[O-])ccc2-n2c1nc1ccccc1c2=O
